These results are taken from ChEMBL document CHEMBL1138872, “Free radical scavengers from the medicinal mushroom Inonotus xeranticus and their proposed biogenesis” (Bioorg Med Chem Lett, 2006).

As usually defined, the IC50 is the midpoint of a concentration-inhibition curve. Higher therefore signals weaker potency.

Common to all, as to type: functional
Test [1] can be described thus: DPPH radical scavenging activity. On the technique in general: DPPH is a stable violet radical that fades when it is reduced.
Test [2] in a line: ABTS radical scavenging activity.
The nature of test [3]: Superoxide anion radical scavenging activity by xanthine/xanthine oxidase method.

`O=C(O)/C=C/c1ccc(O)c(O)c1` [CAFFEIC ACID]: the IC50 in test [1] was 30 µM; in test [2] it was 2.8 µM; in test [3], 2.9 µM.
For `COC1Oc2cc(/C=C/c3ccc(O)c(O)c3)oc(=O)c2-c2cc(O)c(O)cc21` (stereo unspecified) [INOSCAVIN D], in that order: more than 100 µM, 12.5 µM and more than 100 µM.
For `COc1cc(/C=C/c2cc3c(c(=O)o2)-c2cc(O)c(O)cc2C(OC)O3)ccc1O` (stereo unspecified) [METHYLINOSCAVIN D], in that order: more than 100 µM, 8.7 µM and 40.7 µM.
With `O=c1oc2cc(/C=C/c3ccc(O)c(O)c3)oc(=O)c2c2cc(O)c(O)cc12` [PHELLIGRIDIN D], the IC50 was more than 100 µM in test [1], 13.7 µM in test [2] and more than 100 µM in test [3].
On to `O=Cc1ccc(O)c(O)c1` [PROTOCATECHUALDEHYDE], for which the IC50 in test [1] was determined as 29.4 µM; in test [2], 5 µM; in test [3] it was 25.3 µM.
`O=C(O)c1ccc(O)c(O)c1` [PROTOCATECHUIC ACID]: the results for the IC50 in test [1], in test [2] and in test [3] were 27 µM, 15.7 µM and more than 100 µM, respectively.
In the same order, the values of VITAMIN E are 11.5 µM, 8.8 µM and more than 100 µM.
